Assay results as given in ChEMBL document CHEMBL5365440, “Design, synthesis, and structure-activity relationship of a bicyclic HBV capsid assembly modulator chemotype leading to the identification of clinical candidate AB-506” (Bioorg Med Chem Lett, 2023).
≈ marks a conversion by molar mass, not a printed value.

Columns and labels:
Hepatitis B virus [1] = assay: Antiviral activity against Hepatitis B virus Genotype D infected in NOD.CB17-PrkdcSCID/J mouse model assessed as reduction in serum HBV DNA level at po dosed for 7 consecutive days; type: functional, organism-based
Hepatitis B virus [2] = assay: Antiviral activity against Hepatitis B virus infected in human HepDE19 cells assessed as reduction in viral replication incubated for 3 to 7 days by PCR analysis; type: functional, organism-based
[3] = Microsomal stability in human liver microsomes assessed as intrinsic clearance; type: ADME, Microsome; conditions: read-out: CLH
[4] = Microsomal stability in mouse liver microsomes assessed as intrinsic clearance; type: ADME, Microsome; conditions: read-out: CLH
[5] = Aqueous solubility of the compound in PBS buffer at pH 7.4; type: physicochemical
[6] = AUC (0-infinity) in CD-1 mouse at 10 mg/kg,po; type: ADME, organism-based; design: dose 10 mg/kg, route po; conditions: in vivo
[7] = Cmax in CD-1 mouse at 10 mg/kg,po; type: ADME, organism-based; design: dose 10 mg/kg, route po; conditions: in vivo
[8] = Half life in CD-1 mouse at 2 mg/kg,iv; type: ADME, organism-based; conditions: in vivo
[9] = Clearance in CD-1 mouse at 2 mg/kg,iv; type: ADME, organism-based; conditions: in vivo
Hepatitis B virus [10] = assay: Antiviral activity against Hepatitis B virus Genotype D infected in NOD.CB17-PrkdcSCID/J mouse model assessed as log reduction in serum HBV DNA level at 30 mg/kg,po dosed for 7 consecutive days by qPCR analysis; type: functional
Hepatitis B virus [11] = assay: Antiviral activity against Hepatitis B virus Genotype D infected in NOD.CB17-PrkdcSCID/J mouse model assessed as log reduction in serum HBV DNA level at 100 mg/kg,po dosed for 7 consecutive days by qPCR analysis; type: functional
[12] = Cytotoxicity against human HepDE19 cells incubated for 48 hrs by cell titer-glo luminescent based cell viability assay; type: toxicity
Hepatitis B virus [13] = assay: Antiviral activity against Hepatitis B virus infected in mouse AML12 cells assessed as reduction in viral replication incubated for 2 days by SYBR green based PCR analysis; type: functional, organism-based; conditions: AML12, 48 h
Hepatitis B virus [14] = assay: Antiviral activity against Hepatitis B virus Genotype D infected in NOD.CB17-PrkdcSCID/J mouse model assessed as log reduction in serum HBV DNA level at 10 mg/kg,po dosed for 7 consecutive days by qPCR analysis; type: functional
Cytochrome P450 3A4 = Cytochrome P450 3A4 (Homo sapiens, UniProt P08684); assay: Inhibition of CYP3A4 (unknown origin); type: ADME
Cytochrome P450 2D6 = Cytochrome P450 2D6 (Homo sapiens, UniProt P10635); assay: Inhibition of CYP2D6 (unknown origin); type: ADME
Cytochrome P450 2C9 = Cytochrome P450 2C9 (Homo sapiens, UniProt P11712); assay: Inhibition of CYP2C9 (unknown origin); type: ADME
Cytochrome P450 2C19 = Cytochrome P450 2C19 (Homo sapiens, UniProt P33261); assay: Inhibition of CYP2C19 (unknown origin); type: ADME
Cytochrome P450 1A2 = molecular target: T1, Cytochrome P450 1A2 (Homo sapiens, UniProt P05177); assay: Inhibition of CYP1A2 (unknown origin); type: ADME
T1 sequence (P05177 whole entry): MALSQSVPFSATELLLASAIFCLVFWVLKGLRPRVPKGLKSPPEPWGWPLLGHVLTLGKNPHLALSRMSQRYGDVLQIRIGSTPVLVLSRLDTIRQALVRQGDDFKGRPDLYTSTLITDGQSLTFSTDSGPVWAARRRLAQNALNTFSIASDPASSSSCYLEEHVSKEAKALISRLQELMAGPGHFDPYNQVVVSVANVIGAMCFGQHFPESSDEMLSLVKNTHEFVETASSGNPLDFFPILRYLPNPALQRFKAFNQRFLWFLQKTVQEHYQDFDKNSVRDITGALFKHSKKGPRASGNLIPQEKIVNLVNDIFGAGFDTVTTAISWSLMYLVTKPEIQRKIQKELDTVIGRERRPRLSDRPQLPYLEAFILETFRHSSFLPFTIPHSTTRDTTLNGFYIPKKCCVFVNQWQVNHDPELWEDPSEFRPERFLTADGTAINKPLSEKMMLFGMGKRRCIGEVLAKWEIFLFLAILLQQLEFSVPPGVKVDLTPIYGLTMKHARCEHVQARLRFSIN

[15] = Cmax in rat at 10 mg/kg,po; type: ADME, organism-based; design: dose 10 mg/kg, route po; conditions: in vivo
[16] = Cmax in dog at 10 mg/kg,po; type: ADME, organism-based, Canis lupus familiaris; design: dose 10 mg/kg, route po; conditions: in vivo
[17] = Half life in rat at 2 mg/kg,iv; type: ADME, organism-based; conditions: in vivo
[18] = Half life in dog at 2 mg/kg,iv; type: ADME, organism-based, Canis lupus familiaris; conditions: in vivo
[19] = Clearance in rat at 2 mg/kg,iv; type: ADME, organism-based; conditions: in vivo
[20] = Clearance in dog at 2 mg/kg,iv; type: ADME, organism-based, Canis lupus familiaris; conditions: in vivo
in vivo [21] = conditions: rat, po, 10 mg/kg
Description: AUC (0-infinity) in rat at 10 mg/kg,po

in vivo [22] = conditions: dog, po, 10 mg/kg
Description: AUC (0-infinity) in dog at 10 mg/kg,po

Sequence of Cytochrome P450 2D6 (P10635 whole entry): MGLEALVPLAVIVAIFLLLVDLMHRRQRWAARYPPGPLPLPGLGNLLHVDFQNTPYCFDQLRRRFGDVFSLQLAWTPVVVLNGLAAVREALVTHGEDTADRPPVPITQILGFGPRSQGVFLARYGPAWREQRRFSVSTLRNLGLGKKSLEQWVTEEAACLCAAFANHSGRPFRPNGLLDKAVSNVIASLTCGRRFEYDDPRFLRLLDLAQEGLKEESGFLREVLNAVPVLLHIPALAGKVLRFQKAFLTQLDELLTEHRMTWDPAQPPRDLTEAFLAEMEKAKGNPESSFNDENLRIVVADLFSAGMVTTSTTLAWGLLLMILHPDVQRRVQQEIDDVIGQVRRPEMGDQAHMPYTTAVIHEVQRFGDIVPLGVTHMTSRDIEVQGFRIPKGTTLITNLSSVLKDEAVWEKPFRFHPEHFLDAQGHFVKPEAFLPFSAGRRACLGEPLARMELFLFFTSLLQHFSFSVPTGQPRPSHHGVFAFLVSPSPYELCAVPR
Sequence of Cytochrome P450 2C9 (P11712 whole entry): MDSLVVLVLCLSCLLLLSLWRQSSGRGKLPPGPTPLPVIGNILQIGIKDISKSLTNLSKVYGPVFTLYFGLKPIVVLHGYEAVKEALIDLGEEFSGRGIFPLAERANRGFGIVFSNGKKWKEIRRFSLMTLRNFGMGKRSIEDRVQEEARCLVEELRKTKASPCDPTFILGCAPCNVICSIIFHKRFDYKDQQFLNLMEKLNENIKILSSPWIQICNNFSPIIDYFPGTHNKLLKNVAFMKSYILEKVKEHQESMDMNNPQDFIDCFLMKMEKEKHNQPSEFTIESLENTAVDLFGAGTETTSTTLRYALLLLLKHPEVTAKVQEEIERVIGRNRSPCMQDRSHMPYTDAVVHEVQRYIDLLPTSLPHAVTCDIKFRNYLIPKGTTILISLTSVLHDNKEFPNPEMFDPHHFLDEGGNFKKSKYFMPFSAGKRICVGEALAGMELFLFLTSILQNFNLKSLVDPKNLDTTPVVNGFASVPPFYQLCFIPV
Sequence of Cytochrome P450 3A4 (P08684 whole entry): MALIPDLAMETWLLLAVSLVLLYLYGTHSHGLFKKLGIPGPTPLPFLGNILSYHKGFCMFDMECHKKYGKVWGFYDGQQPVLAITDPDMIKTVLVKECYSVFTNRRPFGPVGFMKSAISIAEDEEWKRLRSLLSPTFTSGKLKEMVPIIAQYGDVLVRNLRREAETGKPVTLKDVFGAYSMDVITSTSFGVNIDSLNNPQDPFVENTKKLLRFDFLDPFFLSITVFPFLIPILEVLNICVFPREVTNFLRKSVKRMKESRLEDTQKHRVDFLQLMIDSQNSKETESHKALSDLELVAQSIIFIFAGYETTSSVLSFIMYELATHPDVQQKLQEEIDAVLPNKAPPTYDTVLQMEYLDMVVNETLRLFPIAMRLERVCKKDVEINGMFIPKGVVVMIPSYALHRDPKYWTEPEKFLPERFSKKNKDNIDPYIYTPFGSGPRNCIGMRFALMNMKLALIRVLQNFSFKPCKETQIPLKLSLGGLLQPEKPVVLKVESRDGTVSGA
Sequence of Cytochrome P450 2C19 (P33261 whole entry): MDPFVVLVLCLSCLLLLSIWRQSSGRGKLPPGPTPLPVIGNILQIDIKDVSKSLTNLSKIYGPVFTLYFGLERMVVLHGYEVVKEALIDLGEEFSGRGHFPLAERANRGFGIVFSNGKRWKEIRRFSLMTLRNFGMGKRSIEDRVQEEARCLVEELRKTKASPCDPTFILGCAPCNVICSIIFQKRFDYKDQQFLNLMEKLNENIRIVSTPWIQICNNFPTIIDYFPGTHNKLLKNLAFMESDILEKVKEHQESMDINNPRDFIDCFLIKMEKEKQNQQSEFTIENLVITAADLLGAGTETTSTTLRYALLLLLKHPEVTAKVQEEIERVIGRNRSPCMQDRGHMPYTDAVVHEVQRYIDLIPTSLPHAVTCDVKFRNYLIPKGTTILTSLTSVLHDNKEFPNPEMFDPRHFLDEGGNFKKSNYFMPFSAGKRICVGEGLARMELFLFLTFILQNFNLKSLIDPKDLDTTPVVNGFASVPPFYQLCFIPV

SMILES	EC50 (Hepatitis B virus [2]) [nM]	microsomal CLint [3] [µL/min/mg]	microsomal CLint [4] [µL/min/mg]	solubility [5] [µM]	further results
O=C(N[C@H]1CCc2c(C(=O)Nc3ccc(F)c(Cl)c3)ccc(F)c21)OCc1ccccn1	95	11	36	< 1.6	Activity (Hepatitis B virus [1]): Dose-Dependent Effect; AUC(0-inf) [6]: 7230 ng·h/mL; Cmax [7]: 695 ng/mL; half-life [8]: 1.2 h; clearance [9]: 28 mL/min/kg; Activity (Hepatitis B virus [10]): 0.8 log10CFU; Activity (Hepatitis B virus [11]): 1.6 log10CFU
O=C(N[C@H]1CCc2c(C(=O)Nc3ccc(F)c(Cl)c3)ccc(F)c21)OCCn1ccnc1	300	20	20	16.9 (≈ 7.79 µg/mL)	
O=C(N[C@H]1CCc2c(C(=O)Nc3ccc(F)c(Cl)c3)ccc(F)c21)OCc1cc[nH]n1	74	8	17	< 1.6	
COC(=O)N[C@H]1CCOc2c(C(=O)Nc3ccc(F)c(F)c3)c(F)cc(F)c21	800				CC50 at 48 h [12]: > 25000 nM
COC(=O)N[C@H]1CCOc2c1ccc(F)c2C(=O)Nc1ccc(F)c(Cl)c1	2230				CC50 at 48 h [12]: > 25000 nM
COC(=O)N[C@H]1CCOc2c(C(=O)Nc3ccc(F)c(Cl)c3)ccc(F)c21	200				CC50 at 48 h [12]: > 25000 nM
Cn1nccc1COC(=O)N[C@H]1CCc2c(C(=O)Nc3ccc(F)c(Cl)c3)ccc(F)c21	100	38	25	9.1 (≈ 4.19 µg/mL)	
O=C(N[C@H]1CCc2c(C(=O)Nc3ccc(F)c(Cl)c3)ccc(F)c21)OCCO	200	1	3	6.4 (≈ 2.63 µg/mL)	
COC(=O)N[C@H]1CCOc2c(C(=O)Nc3ccc(F)c(F)c3)ccc(F)c21	570				CC50 at 48 h [12]: > 25000 nM
O=C(N[C@H]1CCc2c(C(=O)Nc3ccc(F)c(Cl)c3)ccc(F)c21)OCc1ncco1	71	7.5	23	< 1.6	
O=C(N[C@H]1CCc2c(C(=O)Nc3ccc(F)c(Cl)c3)ccc(F)c21)OCc1ccon1	120	4.8	33	< 1.6	
COCCCOC(=O)N[C@H]1CCc2c(C(=O)Nc3ccc(F)c(Cl)c3)ccc(F)c21	580	10	55	3 (≈ 1.32 µg/mL)	
COC(=O)N[C@H]1CCCc2c(C(=O)Nc3ccc(F)c(F)c3)cccc21	8600	0.3	21		
COC(=O)N[C@H]1CCc2c(C(=O)Nc3ccc(F)c(Cl)c3)ccc(F)c21	170	3.5	9.2	< 1.6	
CC(=O)NCCOC(=O)N[C@H]1CCc2c(C(=O)Nc3ccc(F)c(Cl)c3)ccc(F)c21	190	133	17	43.4 (≈ 19.6 µg/mL)	
O=C(Nc1ccc(F)c(Cl)c1)c1cccc2c1OCCO2					EC50 (Hepatitis B virus [13]): 200 nM

SMILES	EC50 (Hepatitis B virus [2]) [nM]	microsomal CLint [3] [µL/min/mg]	microsomal CLint [4] [µL/min/mg]	solubility [5] [µM]	further results
Cn1ccc(COC(=O)N[C@H]2CCc3c(C(=O)Nc4ccc(F)c(Cl)c4)ccc(F)c32)n1	47	7.9	23	4.8 (≈ 2.21 µg/mL)	Activity (Hepatitis B virus [14]): 0.5 log10CFU; Activity (Hepatitis B virus [1]): Dose-Dependent Effect; AUC(0-inf) [6]: 5160 ng·h/mL; Cmax [7]: 913 ng/mL; half-life [8]: 3.5 h; clearance [9]: 19 mL/min/kg; Activity (Hepatitis B virus [10]): 1.4 log10CFU; Activity (Hepatitis B virus [11]): 2.5 log10CFU
COC(=O)N[C@H]1CCOc2c(C(=O)Nc3ccc(F)c(F)c3)cccc21	2250				EC50 (Hepatitis B virus [13]): 710 nM; CC50 at 48 h [12]: > 25000 nM
COC(=O)N[C@H]1COc2c(C(=O)Nc3ccc(F)c(F)c3)cccc21	1320	5	41		
O=C(N[C@H]1CCc2c(C(=O)Nc3ccc(F)c(Cl)c3)ccc(F)c21)OCc1cnccn1	120	6.9	18	< 1.6	
COC(=O)N[C@H]1CCc2c(C(=O)Nc3ccc(F)c(F)c3)cccc21	590	0.6	9.2		
COC(=O)N[C@H]1CCOc2c(C(=O)Nc3ccc(F)c(Cl)c3)cccc21	850				EC50 (Hepatitis B virus [13]): 280 nM; CC50 at 48 h [12]: > 25000 nM
COC(=O)N[C@H]1CCOc2c(C(=O)Nc3cc(F)c(F)c(F)c3)cccc21	1170				CC50 at 48 h [12]: > 25000 nM
Cn1ccnc1COC(=O)N[C@H]1CCc2c(C(=O)Nc3ccc(F)c(Cl)c3)ccc(F)c21	280	104	96	< 1.6	
O=C(N[C@H]1CCc2c(C(=O)Nc3ccc(F)c(Cl)c3)ccc(F)c21)OCc1ncccn1	120	3.5	17	4.5 (≈ 2.06 µg/mL)	
Cn1cnc(COC(=O)N[C@H]2CCc3c(C(=O)Nc4ccc(F)c(Cl)c4)ccc(F)c32)n1	77	6.2	21	14.8 (≈ 6.84 µg/mL)	IC50 (Cytochrome P450 3A4): > 20000 nM; IC50 (Cytochrome P450 2D6): > 20000 nM; IC50 (Cytochrome P450 2C9): > 20000 nM; IC50 (Cytochrome P450 2C19): > 20000 nM; IC50 (Cytochrome P450 1A2): > 20000 nM; Cmax [15]: 2850 ng/mL; Cmax [16]: 6820 ng/mL; half-life [17]: 3.2 h; Activity (Hepatitis B virus [14]): 1 log10CFU; Activity (Hepatitis B virus [1]): Dose-Dependent Effect; AUC(0-inf) [6]: 9870 ng·h/mL; half-life [8]: 2.5 h; clearance [9]: 18 mL/min/kg; half-life [18]: 11.4 h; clearance [19]: 4.6 mL/min/kg; clearance [20]: 1.25 mL/min/kg; Activity (Hepatitis B virus [10]): 2.4 log10CFU; Activity (Hepatitis B virus [11]): 2.9 log10CFU; AUC(0-inf) (in vivo [21]): 39600 ng·h/mL; AUC(0-inf) (in vivo [22]): 134000 ng·h/mL
O=C(N[C@H]1CCc2c(C(=O)Nc3ccc(F)c(Cl)c3)ccc(F)c21)OCc1ccncn1	390	1	45	7.5 (≈ 3.44 µg/mL)	
COCCOC(=O)N[C@H]1CCc2c(C(=O)Nc3ccc(F)c(Cl)c3)ccc(F)c21	190	8.2	8.1	2.8 (≈ 1.19 µg/mL)	
COC(=O)N[C@H]1CCCOc2c(C(=O)Nc3ccc(F)c(F)c3)cccc21	> 25000				
O=C(N[C@H]1CCc2c(C(=O)Nc3ccc(F)c(Cl)c3)ccc(F)c21)OCc1nc[nH]n1	79	0.2	9	6.1 (≈ 2.73 µg/mL)	
COC(=O)N[C@H]1CCOc2c1ccc(F)c2C(=O)Nc1ccc(F)c(F)c1	3710				CC50 at 48 h [12]: > 25000 nM
